Where two headings read alike, the source gives them in different places. Blank lines part the entries; values can stand above or below the compound they belong to.
Columns and labels:
[1] = in vivo; settings: male, Sprague-Dawley, rat, po
Procedure: (§1) The whole blood samples (0.5 mL) were collected into syringes that were prefilled with 2.5 mL of ice-cold 0.1% formic acid in acetonitrile. The volume ratio of the whole blood to 0.1% formic acid in acetonitrile was 1/5 (v/v). Samples were frozen (-70°C) until analyzed by LC-MS/MS.
(§2) Standard curves and quality control (QC) samples were prepared fresh on the day of analysis by serial dilution of the standard mixture in quenched whole blood (1 part of blood to 5 parts of 0.1% formic acid in acetonitrile) and centrifuged. […] The frozen study samples were thawed in an ice/water bath and centrifuged. Supernatant (50 μL) from standards, QC samples, and study samples was transferred to a 96-well plate and dried completely under nitrogen. The dried residues were reconstituted with 100 μL of 0.1% formic acid in water containing internal standard (5 ng/mL of ^15N/^13C3-RE-024-02) and analyzed by LC-MS/MS.
(§3) LC-MS/MS analysis for blood pharmacokinetic samples: Samples were analyzed using an Agilent 1100 binary pump (Agilent Technologies, Santa Clara, CA, USA), connected to an AB Sciex API 6500 mass spectrometer (SCIEX, Framingham, MA, USA). An electrospray ionization source was used, scanning in the positive mode. […] The chromatography column was a Varian Metasil AQ 120–5 C18 column, 5 μm, 50 x 2.00 mm (Part No. A0530050X020) at ambient temperature, with a 0.5 mL/min flow rate and a 20 μL injection volume. Mobile phase (A) consisted of 0.1% formic acid in water; while mobile phase (B) consisted of 0.1% formic acid in acetonitrile:water (9:1, v/v).
(§4) Quantitation of in vivo samples: Peak areas were integrated using Analyst software (AB Sciex, Concord, Ontario, Canada). […] Calibration standards (at a minimum 7 per curve) were fit by linear regression with (1/x^2) weighting. QC samples were used (triplicate) at 3 concentrations for all tandem mass spectrometry (MS/MS) runs.
(§5) Pharmacokinetic calculations: PK analysis was performed using Phoenix WinNonlin®, Build 6.3.0.395 (Certara, Princeton, NJ, USA) using a non-compartmental model (PO dose = model 200 for extravascular dosing). […] Post-dose concentrations below the limit of quantitation (BLQ) were omitted from calculation.

[2] = in vivo; settings: male, C57Bl6, mouse, po, 700 mg/kg
Procedure: (§6) Mice were anesthetized using isoflurane (2%, 800 mL/min O2).
(§7) For oral dosing experiments, MetaQuant microdialysis probes (regenerated cellulose membrane, BrainLink, the Netherlands) were inserted into the striatum (3 mm exposed surface). Coordinates for the tips of the probes for mice were anterior-posterior (AP) = +0.8 mm from bregma, lateral (L) = -1.7 mm from midline, and ventral (V) = -4.0 mm from dura, the toothbar set at 0 mm.
(§8) Microdialysis animal dosing and sample collection: Adult non-fasted male C57Bl6 mice (20–29 g; Harlan Laboratories, Livermore, CA), and Macaca fascicularis (4–9 kg, 3–6 yr old) were used for the experiments. For oral dosing, fosmetpantotenate was formulated as a solution in 20% hydroxypropyl-beta-cyclodextrin in 50 mM citrate buffer in water pH 5.0 and administered using a dose volume of 10 mL/kg. Mice (N = 6 serially sampled) received fosmetpantotenate as a single oral dose at 700 mg/kg and monkeys received a single oral dose at either 100 mg/kg (N = 4 serially sampled) or 300 mg/kg (N = 2 serially sampled).
(§9) Microdialysis: On the morning of the microdialysis experiment, a MetaQuant probe was inserted into the guide shaft targeting the head of the caudate nucleus and perfused at a rate of 0.15 μL/min aCSF containing 0.2% (w/v) BSA, with a carrier flow of 0.8 μL/min of ultrapure water.
(§10) A single 30 min pre-dose basal dialysate sample was collected from mice over -0.5 to 0 h, and three 30 min basal samples from monkeys over -1.5 to 0 h. Fosmetpantotenate was administered at t = 0, and 30 min dialysate samples were collected for an additional 4 h for mice and 3 h for monkeys.
(§11) Sample preparation for mouse dialysate samples: Concentrations of fosmetpantotenate, PA, and PPA in mouse dialysate were determined by Nextcea, Inc, Woburn, MA, using LC-MS/MS. Standard curves and QC samples containing fosmetpantotenate (D1 and D2) and the surrogate analytes for PA and PPA (^15N/^13C3-PA and ^15N/^13C3-PPA) were prepared fresh in 0.1% formic acid in water. Frozen study mouse dialysate samples were thawed in ice/water bath. Standards, QC samples, and thawed study dialysate samples (20 μL) were mixed with 20 μL 0.1% formic acid in water containing internal standard (50 ng/mL of ^15N/^13C3-fosmetpantotenate) and analyzed by LC-MS/MS.
(§12) LC-MS/MS analysis for mouse dialysate samples: Concentrations of fosmetpantotenate, PA, and PPA in dialysate from mice were determined by using LC-MS/MS conditions described for blood PK analysis by Nextcea, except dialysate samples were analyzed using an ACIEX API 5000 and flow rate was increased to 0.6 mL/min.
(§13) Quantitation of in vivo samples: Peak areas were integrated using Analyst software (AB Sciex, Concord, Ontario, Canada). Calibration curves for all blood samples from mouse and rat PK studies and mouse dialysate samples were prepared by plotting the analyte to internal standard (^15N/^13C3-fosmetpantotenate) peak area ratio vs concentration.

[3] = in vivo; settings: cynomolgus monkey, po, 300 mg/kg
[4] = Pharmacokinetics in whole blood, CD-1 mice; settings: male, CD-1, mouse, whole blood, oral, 100 mg/kg, Conc., blood; fosmetpantotenate 100 mg/kg PO; 2 hr; individual animals
Procedure: as §1, §2, §3, §4, §5

[5] = male, CD-1, mouse, in vivo
Procedure: as §1, §2, §3, §4, §5

[6] = in vitro
Procedure: (§14) Permeability studies were performed after 2 days of co-culture with rat astrocytes. […] In each filter used for transport, a paracellular marker was included as an internal control to monitor the integrity of the cell monolayer. The day of the experiment, culture medium was removed and cells on Transwell inserts were pre-incubated for 30 min with Hank's Balanced Salt Solution (HBSS) containing 20 mM Hepes pH 7.4 and 0.1% bovine serum albumin (BSA). […] Aliquots from the basal compartment were taken after 1 h; fluorescence was measured using a fluorescence detector. The permeability coefficient of the total system was calculated as follows: P[cm/s]=Vd×ΔMr/A×Md×Δt Where:
(§15) To correct for the contribution of the porous polycarbonate membrane of the filter in the absence of cells, the permeability was also determined for the cell-free system. Contribution of the endothelial cell monolayer to the permeability of the cell and filter system was determined by the following equation: 1/Pe=1/Pt-1/Pf Where the total permeability of the system is denoted as Pt, the cell-free filter as Pf, and the endothelial cell layer alone as Pe. The total resistance of the system towards passage of a substance is composed of 2 resistances in series: that of the cell monolayer and that of the filter; permeability is estimated as 1/resistance [27]. […] Mass balance was determined based on the amount of compound recovered in the donor and receiver chamber at the end of the assay relative to the amount added to the donor chamber at time 0.

[7] = male, Sprague-Dawley, rat, in vivo
Procedure: as §1, §2, §3, §4, §5

[8] = tested on: porcine brain endothelial cell (PBEC) co-culture model
Procedure: as §14, §15

[9] = male, C57Bl6, mouse, in vivo, po, 700 mg/kg
Procedure: as §6, §7, §8, §9, §10, §11, §12, §13

[10] = Microdialysis (striatal dialysate and blood) in cynomolgus monkeys; assay type: in vivo, cynomolgus monkey; settings: cynomolgus monkey, in vivo, po
Procedure: Monkeys were sedated by intramuscular (i.m.) ketamine administration and cannulated for intravenous (i.v.) administration of propofol infusion (initiated 15–30 min after ketamine administration). Subsequently, the animals were placed in an magnetic resonance imaging (MRI)-compatible stereotaxic frame (Kopf Model 1430), and T1 and T2 weighted scans (for up to 1 h) were carried out with a 7 cm loop-coil in a 3 Tesla Siemens Magnetom TIM Trio (Germany). To derive the coordinates, Digital Imaging and Communications in Medicine (DICOM) files were transformed into Neuroimaging Informatics Technology Initiative (NIFTI) format. NIFTI-compatible images were loaded into 3D viewer software (MRIcro version 1.40 build 1), and the stereotaxic zero in the MRI image was determined using the coordinates of the earbar-tips. Coordinates for placement of the guide cannulas were calculated for every individual animal by use of MRI images and a primate brain map.
On a separate day, microdialysis guide cannulas were placed bilaterally in the head of the caudate nucleus using the same MRI compatible stereotaxic frame (Kopf Model 1430), under isoflurane anesthesia. Prior to surgery, animals were administered ketamine (i.m.), and subsequently anesthetized with isoflurane (0.8%-2% inhalation) while artificially ventilated with O2/N2O (40/60) at 60 to 80 mL tidal volume via an intratracheal tube. During surgery, subcutaneous or i.v. fluids were provided. Animals were allowed to recover from the anesthesia in a warmed environment, single housed, and given at a minimum a 14-day post-surgery recovery time. The following medications were administered to reduce pain and inflammation, as well as reduce the chance of post-operative infection: meloxicam (Metacam 5 mg/mL, 0.2 mg/kg, buprenorphine (Temgesic, 0.3 mg/mL, 0.0038 mg/kg), enrofloxacine (25 mg/mL, 5 mg/kg), and amoxicillin (150 mg/mL, 15 mg/kg).
Samples were stored in -80°C.
From monkeys only, whole blood samples (0.5 mL) were collected from the femoral vein at -1, 0, 1, 2, and 3 h relative to dosing and transferred immediately to chilled polypropylene 15 mL vials containing 2500 μL of 0.15% formic acid in acetonitrile, mixed, and placed on dry ice. After the collections samples were stored at -80°C.
Sample preparation for monkey dialysate and blood samples: Concentrations of fosmetpantotenate (D1 and D2), PA, and PPA in monkey dialysate and blood samples were determined by Brains On-Line LLC. […] For dialysate quantitation, standards and QC samples were prepared in control dialysate (0.2% BSA in aCSF: water: 0.04% ascorbic acid in aqueous 0.02 M formic acid [4.5:24:6 v/v/v]). Standards, QC samples, and dialysate (10 μL) were mixed with 6 μL 20 mM formic acid and 0.01% ascorbic acid in water containing internal standard (10 ng/mL of ^15N/^13C3-PA) and analyzed by LC-MS/MS. Blood standards and QC samples were prepared in supernatant from control monkey blood which had been treated with 5 volumes of 0.15% formic acid in acetonitrile. Endogenous levels >LLOQ were detected for PA in control quenched blood only and quantitated at 56.56 nM based on calibration standard prepared in solvent. To compensate for endogenous PA in the calibration curve control blood, PA standard curve concentrations were spiked plus endogenous levels. Sample work-up of blood involved diluting 10 μL supernatant from study blood samples, standards, and QC samples with 90 μL of 20 mM formic acid and 0.01% ascorbic acid in water, then treating with 4 μL 20 mM formic acid and 0.01% ascorbic acid in water containing internal standard (10 ng/mL of ^15N/^13C3-PA) and analyzing by LC-MS/MS.

[11] = in vivo; settings: male, CD-1, mouse, po
Procedure: as §1, §2, §3, §4, §5

[12] = tested on: porcine brain endothelial cell (PBEC) co-culture model; experiment: In vitro blood-brain barrier permeability (PBEC/rat astrocyte co-culture); settings: in words
Procedure: as §14, §15

[13] = as above; settings: pH 7.4, In Vitro Measured Papp, mean ± SD (n = 3)
Procedure: as §14, §15

[14] = PA Concentration in Mouse Striatal Dialysate (Corrected for Dilution)
[15] = PA Concentration in Mouse Striatal Dialysate (Corrected for Dilution), Mean

AUC ([1]; 100 mg/kg): 8.68 µM·h
Cmax ([1]; 100 mg/kg): 1.34 µM
AUC ([1]; 300 mg/kg): 32.5 µM·h
Cmax ([1]; 300 mg/kg): 4.75 µM
AUC ([1]; 700 mg/kg): 40.1 µM·h
Cmax ([1]; 700 mg/kg): 7.9 µM
AUC [2]: 0.154 ± 0.105 µM·h
Cmax ([2]; PA Cmax): 0.088 ± 0.0743 µM
concentration at 0 h [2, 14]: 0.0528 µM
concentration at 0.5 h [2, 14]: 0.0651 µM
concentration at 1 h [2, 14]: 0.0777 µM
concentration at 0 h [2, 15]: 0.0507 µM
concentration at 0.5 h [2, 15]: 0.0577 µM
concentration at 1 h [2, 15]: 0.0756 µM
concentration at 3.5 h [2, 15]: 0.115 µM
concentration at 4 h [2, 15]: 0.128 µM
Cmax ([2]; total PA Cmax): 0.13 µM
AUC [3]: 3.35 µM·h
Cmax [3]: 0.589 µM
concentration at 2 h [4]: 0.282 µM
fold increase in AUC as dose increased from 100 to 700 mg/kg [5]: 3.1 fold
fold increase in Cmax as dose increased from 100 to 700 mg/kg [5]: 2.4 fold
Papp at 1 h ([6]; pH 7.4, In Vitro Measured Papp): 42 ± 13 nm/s
Papp at 60 min ([6]; pig, pH 7.4, Papp): 56 nm/s
fold increase in AUC as dose increased from 100 to 700 mg/kg [7]: 4.6 fold
fold increase in Cmax as dose increased from 100 to 700 mg/kg [7]: 5.9 fold
blood-brain barrier permeability classification [8]: permeable
PA Concentration in Mouse Striatal Dialysate (Corrected for Dilution), Mean ([9]; 1.5 h): 61.5 nM
PA Concentration in Mouse Striatal Dialysate (Corrected for Dilution), Mean ([9]; 2 h): 80.7 nM
PA Concentration in Mouse Striatal Dialysate (Corrected for Dilution), Mean ([9]; 2.5 h): 87.6 nM
PA Concentration in Mouse Striatal Dialysate (Corrected for Dilution), Mean ([9]; 3 h): 95.3 nM
AUC ([10]; 300 mg/kg): 2.17 µM·h
Cmax ([10]; 300 mg/kg): 1.3 µM
AUC ([10]; cynomolgus, 100 mg/kg): 0.467 ± 0.152 µM·h
Cmax ([10]; cynomolgus, 100 mg/kg): 0.255 ± 0.07 µM
AUC ([10]; cynomolgus, 300 mg/kg): 9.34 µM·h
Cmax ([10]; cynomolgus, 300 mg/kg): 4.27 µM
AUC ([11]; 100 mg/kg): 3.4 µM·h
Cmax ([11]; 100 mg/kg): 0.683 µM
AUC ([11]; 300 mg/kg): 5.76 µM·h
Cmax ([11]; 300 mg/kg): 0.771 µM
AUC ([11]; 700 mg/kg): 10.5 µM·h
Cmax ([11]; 700 mg/kg): 1.61 µM
SMILES: CC(C)(CO)[C@@H](O)C(=O)NCCC(=O)O [PA, pantothenate]

SMILES: C=CCN1CC[C@]23c4c5ccc(O)c4O[C@H]2C(=O)CC[C@@]3(O)[C@H]1C5 [Naloxone]
blood-brain barrier permeability classification [12]: high permeability range
Papp at 1 h [13]: 423 ± 110 nm/s

Source: PMC5844530, “Fosmetpantotenate (RE-024), a phosphopantothenate replacement therapy for pantothenate kinase-associated neurodegeneration: Mechanism of action and efficacy in nonclinical models” (PLoS ONE, 2018)
